Assay results as given in US20130065883A1 (Centro Nacional de Investigaceiones Oncologicas (CNIO), priority 2010, published 2013).
Like-named read-outs stand apart in the source and are kept apart here.

Tests used:
PIM-2 = biological target: T1, PIM-2 (Homo sapiens, UniProt Q9P1W9); assay: PIM-2 biochemical assay (ADP Hunter); details: semi-quantitative class; read-out: PIM2 IC50;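 note: recombinant N-terminally His-tagged human enzyme, kinase activity quantified by detection of ADP formed as the direct reaction product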
T1 construct: histidine tag (N); made in house
T1 sequence (Q9P1W9 whole entry): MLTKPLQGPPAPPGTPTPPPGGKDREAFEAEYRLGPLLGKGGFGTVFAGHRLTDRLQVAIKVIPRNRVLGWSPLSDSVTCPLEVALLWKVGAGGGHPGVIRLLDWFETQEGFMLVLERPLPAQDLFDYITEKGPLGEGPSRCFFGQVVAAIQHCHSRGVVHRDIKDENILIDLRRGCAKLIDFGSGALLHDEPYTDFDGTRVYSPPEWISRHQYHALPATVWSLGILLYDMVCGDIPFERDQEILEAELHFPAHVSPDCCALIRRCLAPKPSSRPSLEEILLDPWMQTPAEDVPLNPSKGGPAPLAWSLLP

FLT3 = biological target: T2, FLT3 (Homo sapiens, UniProt P36888); assay: FLT3 biochemical assay (ADP Hunter);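 note: FLT3 enzymatic activity quantified through the ADP produced by the kinase reaction, detected with an ADP Hunter readout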
T2 sequence (P36888 27-993): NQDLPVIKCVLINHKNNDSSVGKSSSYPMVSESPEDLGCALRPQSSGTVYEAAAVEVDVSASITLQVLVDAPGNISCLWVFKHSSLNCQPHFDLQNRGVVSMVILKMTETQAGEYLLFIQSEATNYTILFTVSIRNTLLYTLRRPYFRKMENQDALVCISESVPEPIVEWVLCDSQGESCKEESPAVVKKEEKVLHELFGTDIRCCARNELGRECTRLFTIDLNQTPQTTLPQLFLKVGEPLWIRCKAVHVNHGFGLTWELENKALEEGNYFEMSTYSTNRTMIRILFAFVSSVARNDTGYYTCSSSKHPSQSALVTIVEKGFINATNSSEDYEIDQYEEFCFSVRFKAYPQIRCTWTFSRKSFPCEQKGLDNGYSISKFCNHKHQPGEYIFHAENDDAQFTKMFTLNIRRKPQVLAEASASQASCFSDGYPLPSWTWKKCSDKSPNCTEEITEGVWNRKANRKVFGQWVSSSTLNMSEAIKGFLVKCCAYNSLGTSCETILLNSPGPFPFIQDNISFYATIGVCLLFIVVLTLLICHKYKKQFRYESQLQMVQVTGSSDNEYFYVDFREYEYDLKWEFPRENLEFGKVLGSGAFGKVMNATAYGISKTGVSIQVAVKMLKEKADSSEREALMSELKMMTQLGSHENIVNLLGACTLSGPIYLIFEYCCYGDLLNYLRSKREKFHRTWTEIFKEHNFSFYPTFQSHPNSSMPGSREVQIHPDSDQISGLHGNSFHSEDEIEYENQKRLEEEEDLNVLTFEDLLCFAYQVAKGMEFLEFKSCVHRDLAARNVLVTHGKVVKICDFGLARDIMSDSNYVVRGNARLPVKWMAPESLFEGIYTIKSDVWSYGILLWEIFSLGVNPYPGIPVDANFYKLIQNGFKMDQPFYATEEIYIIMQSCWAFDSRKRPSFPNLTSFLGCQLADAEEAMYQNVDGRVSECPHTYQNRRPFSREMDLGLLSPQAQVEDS

PIM-3 = biological target: T3, PIM-3 (Homo sapiens, UniProt Q86V86); assay: PIM-3 biochemical assay (ADP Hunter); details: read-out: PIM3 IC50;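 note: kinase activity read out as the quantity of ADP generated by the enzyme reaction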
T3 construct: purchased Millipore 14-738

PIM-1 = biological target: T4, PIM-1 (Homo sapiens, UniProt P11309); assay: PIM-1 biochemical assay (ADP Hunter); details: read-out: PIM1 IC50;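 note: recombinant human PIM-1 carrying a C-terminal His tag, kinase activity quantified via ADP formed as the direct enzymatic product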
T4 construct: histidine tag (C); made in house
T4 sequence (P11309 whole entry): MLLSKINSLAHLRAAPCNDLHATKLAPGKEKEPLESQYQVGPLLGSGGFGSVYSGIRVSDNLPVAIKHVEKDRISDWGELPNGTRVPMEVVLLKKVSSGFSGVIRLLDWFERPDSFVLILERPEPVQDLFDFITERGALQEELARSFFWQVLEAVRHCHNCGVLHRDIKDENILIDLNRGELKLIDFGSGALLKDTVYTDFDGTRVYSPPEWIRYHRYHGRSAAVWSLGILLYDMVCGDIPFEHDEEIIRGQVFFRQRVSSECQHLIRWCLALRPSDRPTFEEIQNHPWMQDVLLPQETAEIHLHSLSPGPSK

[1] = Metabolic stability assay; format: in vitro ADME; details: percentage metabolic stability in human liver microsomes
Protocol: The metabolic stability assay was performed in Wuxi. 1 μM, 15 min. The kinase selectivity testing was performed in ProQinase GmbH, Germany.

tumor cell lines = assay: Combination assay (MTT in vitro cell proliferation, combination index); format: cell-based; details: for EC50: read-out: Chemo EC50
[2] = actual IC50 value in parentheses
[3] = Homo sapiens, MIA PaCa-2, MiaPaca-2, pancreas, chemotherapeutic alone
[4] = Jeko-1, combined with lapatinib
[5] = Homo sapiens, JeKo-1, Jeko-1, Mantle cell lymphoma, chemotherapeutic alone
[6] = Homo sapiens, MV4-11, MV4:11, leukemia (AML), chemotherapeutic alone
[7] = Homo sapiens, SK-MEL19, SKMel19, melanoma, chemotherapeutic alone
[8] = SKMel19, combined with GDC-0879

| Structure (SMILES) | IC50 (PIM-2) | IC50 (FLT3; semi-quantitative class) | IC50 (PIM-3; semi-quantitative class) | IC50 (PIM-1; semi-quantitative class) | IC50 (PIM-1; [2]) | other results |
| --- | --- | --- | --- | --- | --- | --- |
| FC(F)(F)Oc1cccc(-n2nnc3cc(Cl)c(N4CCCC5(CCCN5)CC4)nc32)c1 (centres unmarked) [2-78] | > 1000 nM | < 100 nM | < 100 nM | < 100 nM | – | IC50 (FLT3; [2]): 20 nM; IC50 (PIM-3; [2]): 56 nM |
| FC(F)(F)Oc1cccc(-n2nnc3ccc(NCC4CCNCC4)nc32)c1 [2-21] | – | – | – | – | – | Stability in HLM [1]: 97.95% |
| Nc1ccn([C@@H]2O[C@H](CO)[C@@H](O)C2(F)F)c(=O)n1 [Gemcitabine, 4-amino-1-[3,3-difluoro-4-hydroxy-5-(hydroxymethyl)tetrahydrofuran-2-yl]-1H-pyrimidin-2-one, reference compound] | – | – | – | – | – | EC50 (tumor cell lines; [3]): 50 nM |
| FC(F)(F)Oc1cccc(-n2nnc3ccc(N4CCOC5(CCNCC5)C4)nc32)c1 [2-58] | > 1000 nM | > 1000 nM | > 1000 nM | < 100 nM | 85 nM | – |
| O[C@H]1CC[C@@H](CNc2ccc3nnn(-c4cccc(OC(F)(F)F)c4)c3n2)CC1 [2-57] | > 1000 nM | > 1000 nM | 100 to 1000 nM | < 100 nM | – | – |
| FC(F)(F)Oc1cccc(-n2nnc3cc(Cl)c(NC4CC5(CCNCC5)C4)nc32)c1 [2-79] | > 1000 nM | 100 to 1000 nM | < 100 nM | < 100 nM | 33 nM | IC50 (PIM-3; [2]): 40 nM |
| CS(=O)(=O)N1CCN(Cc2cc3nc(-c4cccc5[nH]ncc45)nc(N4CCOCC4)c3s2)CC1 [GDC-0941, reference compound] | – | – | – | – | – | EC50 (tumor cell lines; Homo sapiens, A549, A549, lung adenocarcinoma, chemotherapeutic alone): 6000 nM; EC50 (tumor cell lines; [5]): 1000 nM; EC50 (tumor cell lines; [6]): 500 nM; EC50 (tumor cell lines; Homo sapiens, NCI-H1975, NCIH1975, non small cell lung carcinoma, chemotherapeutic alone): 20000 nM; EC50 (tumor cell lines; [7]): 500 nM; EC50 (tumor cell lines; PC3, prostate cancer, chemotherapeutic alone): 10000 nM |
| COc1cc(NCC2CC3(CCNCC3)C2)nc2c1nnn2-c1cccc(N(C)C)c1 [2-94] | > 1000 nM | > 1000 nM | < 100 nM | < 100 nM | 9 nM | IC50 (PIM-3; [2]): 56 nM |
| OCCn1cc(-c2ccc3c(c2)CC/C3=N\O)c(-c2ccncc2)n1 [GDC-0879, reference compound] | – | – | – | – | – | EC50 (tumor cell lines; [7]): 300 nM |
| COc1cc(NC2CC3(CCNCC3)C2)nc2c1nnn2-c1cccc(N(C)C)c1 [2-96] | > 1000 nM | > 1000 nM | < 100 nM | < 100 nM | 32 nM | IC50 (PIM-3; [2]): 68 nM |
| CS(=O)(=O)CCNCc1ccc(-c2ccc3ncnc(Nc4ccc(OCc5cccc(F)c5)c(Cl)c4)c3c2)o1 [lapatinib, N-(3-chloro-4-(3-fluorobenzyloxy)phenyl)-6-(5-((2-(methylsulfonyl)ethylamino)-methyl)furan-2-yl)quinazolin-4-amine, reference compound] | – | – | – | – | – | EC50 (tumor cell lines; HTC116, colon carcinoma, chemotherapeutic alone): 10000 nM; EC50 (tumor cell lines; [5]): 5000 nM; EC50 (tumor cell lines; [3]): 20000 nM; EC50 (tumor cell lines; [6]): 5000 nM; EC50 (tumor cell lines; Homo sapiens, NCI-H23, NCIH23, non small cell lung carcinoma, chemotherapeutic alone): 10000 nM |
| O=C(NOC[C@H](O)CO)c1ccc(F)c(F)c1Nc1ccc(I)cc1F [PD-0325901, (R)—N-(2,3-dihydroxypropoxy)-3,4-difluoro-2-(2-fluoro-4-iodophenylamino)benz-amide, reference compound] | – | – | – | – | – | EC50 (tumor cell lines): 1250 nM |
| O[C@H]1CC[C@@H](Nc2ccc3nnn(-c4cccc(OC(F)(F)F)c4)c3n2)CC1 [2-68] | – | – | – | – | – | Synergy (tumor cell lines; [4]): ++ (0.3 < CI < 0.7 (++)); Synergy (tumor cell lines; MV4:11, combined with GDC-0941): ++ (0.3 < CI < 0.7 (++)) |
| FC(F)(F)Oc1cccc(-n2nnc3ccc(N4CC5(CCNCC5)C4)nc32)c1 [2-49] | 100 to 1000 nM | > 1000 nM | 100 to 1000 nM | – | – | Synergy (tumor cell lines; NCIH23, combined with lapatinib): + (0.7 < CI < 1.2 (+)) |
| CS(=O)(=O)NC1CCN(c2ccc3nnn(-c4cccc(OC(F)(F)F)c4)c3n2)CC1 [2-80] | > 1000 nM | > 1000 nM | 100 to 1000 nM | 100 to 1000 nM | – | – |

Continued, in another order:

| IC50 (PIM-2) | IC50 (FLT3; semi-quantitative class) | IC50 (PIM-3; semi-quantitative class) | IC50 (PIM-1; semi-quantitative class) | IC50 (PIM-1; [2]) | Structure (SMILES) | other results |
| --- | --- | --- | --- | --- | --- | --- |
| 100 to 1000 nM | > 1000 nM | 100 to 1000 nM | 100 to 1000 nM | – | OC1CCN(c2ccc3nnn(-c4cccc(OC(F)(F)F)c4)c3n2)CC1 [2-70] | – |
| > 1000 nM | 100 to 1000 nM | > 1000 nM | < 100 nM | 90 nM | CN1CCC(CNc2nc3c(cc2Cl)nnn3-c2cccc(OC(F)(F)F)c2)CC1 [2-55, [6-chloro-3-(3-trifluoromethoxy-phenyl)-3H-[1,2,3]triazolo[4,5-b]pyridin-5-yl]-(1-methyl-piperidin-4-ylmethyl)-amine] | Combination Index (CI) (tumor cell lines; [4]): 0.15; Synergy (tumor cell lines; [4]): +++ (0.1 < CI < 0.3 (+++)); Combination Index (CI) (tumor cell lines; MV4:11, combined with GDC-0941): 0.35; Synergy (tumor cell lines; MV4:11, combined with GDC-0941): ++ (0.3 < CI < 0.7 (++)) |
| 100 to 1000 nM | < 100 nM | < 100 nM | < 100 nM | 11 nM | FC(F)(F)Oc1cccc(-n2nnc3cc(Br)c(NCC4CCNCC4)nc32)c1 [2-89] | IC50 (FLT3; [2]): 58 nM; IC50 (PIM-3; [2]): 8 nM |
| > 1000 nM | 100 to 1000 nM | < 100 nM | < 100 nM | 11 nM | Oc1ccc(-n2nnc3ccc(NCC4CCNCC4)nc32)cc1 [2-32] | IC50 (PIM-3; [2]): 15 nM |
| > 1000 nM | > 1000 nM | > 1000 nM | < 100 nM | 74 nM | FC(F)(F)Oc1cccc(-n2nnc3ccc(N4CCC5(CC4)CNCCO5)nc32)c1 [2-61] | – |
| > 1000 nM | > 1000 nM | 100 to 1000 nM | < 100 nM | – | FC(F)(F)Oc1cccc(-n2nnc3ccc(N4CCCC5(CCNCC5)C4)nc32)c1 [2-59] | – |
| > 1000 nM | > 1000 nM | 100 to 1000 nM | – | – | CNC1CCN(c2ccc3nnn(-c4cccc(OC(F)(F)F)c4)c3n2)CC1 [2-44] | – |
| > 1000 nM | 100 to 1000 nM | 100 to 1000 nM | < 100 nM | 71 nM | FC(F)(F)c1cccc(-n2nnc3ccc(N4CCCC5(CCCN5)CC4)nc32)c1 (centres unmarked) [2-81] | – |
| 100 to 1000 nM | > 1000 nM | > 1000 nM | < 100 nM | 79 nM | CS(=O)(=O)N1CCC(Nc2ccc3nnn(-c4cccc(OC(F)(F)F)c4)c3n2)CC1 [2-56] | – |
| > 1000 nM | > 1000 nM | < 100 nM | < 100 nM | 34 nM | FC(F)(F)Oc1cccc(-n2nnc3ccc(NCC4CCN(Cc5ccncc5)CC4)nc32)c1 [2-25] | Combination Index (CI) (tumor cell lines; [4]): 0.387; Synergy (tumor cell lines; [4]): ++ (0.3 < CI < 0.7 (++)); Combination Index (CI) (tumor cell lines; MV4:11, combined with GDC-0941): 0.311; Synergy (tumor cell lines; MV4:11, combined with GDC-0941): ++ (0.3 < CI < 0.7 (++)); Combination Index (CI) (tumor cell lines; [8]): 0.87; Synergy (tumor cell lines; [8]): + (0.7 < CI < 1.2 (+)); IC50 (PIM-3; [2]): 22 nM |
| > 1000 nM | > 1000 nM | 100 to 1000 nM | – | – | CC(C)N1CCC(CNc2ccc3nnn(-c4cccc(OC(F)(F)F)c4)c3n2)CC1 [2-73] | – |
| 100 to 1000 nM | > 1000 nM | < 100 nM | – | – | Oc1ccc(-n2nnc3ccc(NCc4ccc(F)cc4)nc32)cc1 [2-04, 4-[5-(4-Fluoro-benzylamino)-[1,2,3]triazolo[4,5-b]pyridin-3-yl]-phenol] | IC50 (PIM-3; [2]): 51 nM |
